Laboratory results: patent publication US12344599B2, “Prodigiosin analogs and methods of use” (Institute For Cancer Research, priority 2016, dated 2025)

How the values were obtained:
HT29 = test: CellTiterGlo cell viability assay, HT29; assay type: cell-based; conditions: Homo sapiens, HT-29; HT29, colorectal cancer, p53 R273H, 72 hours
Procedure: • 1) Cell lines: HT29, SW480, DLD-1, HCT116, and p53-null HCT116 cells, H1975, MDA-MD-231, U251, FaDu, CAL-27, PANC-1, Aspc-1, and MRC5 were obtained from the ATCC and cultured as recommended. Cells were regularly authenticated by bioluminescence, growth, and morphologic observation. The cells were routinely examined for Mycoplasma and all cell lines underwent STR authentication. • 2) Western blotting: After treatment, protein lysates were collected for Western blot analysis. 15 μg of protein was used for SDS-PAGE. After primary and secondary antibody incubations, the signal was detected by chemiluminescent detection kit, imaged by Syngene (Imgen Technologies). […] The cell viability was assessed by CellTiterGlo bioluminescent cell proliferation assay (Promega), following the manufacturer's protocol. Bioluminescence imaging was measured using the IVIS imager. Percentage of cell viability (mean±SEM) at each dose was calculated against the respective DMSO control. The IC50 values were determined from the sigmoidal dose-response curves using GraphPad Prims4. • 4) Caspase activity assay: Cells were seeded in 96-well plate (1×10^4 cells/well). […] The caspase 3/7 activity was assessed by Caspase-Glo® 3/7 Assay kit (Promega), following the manufacturer's protocol. Bioluminescence imaging was measured using the IVIS imager. […]

[1] = test system: p53 target genes in HT29 cells; test: RNA-Seq gene profiling with IPA analysis; assay type: cell-based, human; conditions: HT29, 1 μM for 24 hours
Procedure: Having confirmed that PG3-Oc induces apoptosis in multiple p53-expressing mutant cancer cell lines, whether this small molecule restored p53 pathway signaling was investigated in HT29 cells after treatment with 1 μM PG3-Oc for 24 hours. For this purpose, gene profiling was performed by RNA-Seq and bioinformatics analysis, such as IPA (Ingenuity pathway analysis), GSEA (gene set enrichment analysis) and GO (gene ontology) (See details at Methods and Materials). […] Key p53 target gene CDKN1A (p21) that negatively regulate cell cycle and other p53 target genes that regulate apoptosis such as, TNFRSF10B (DR5), BBC3 (PUMA), BIRC5 (Survivin), TP53INP1 (Teap) were identified in canonical p53 pathway analysis. […] To verify that the behavior of regulation of p53 target genes by PG3-Oc is similar to p53 protein, based on published data (Fischer, Oncogene, 2017, 36(28), 3943-3956), genes directly repressed (FIG. 89) and activated (FIG. 90) by the p53 transcription factor were selected. […] This implicates that PG3-Oc is able to restore the p53 pathway.

c-Myc and PUMA = test: Western blot of c-Myc, PUMA and p53 target genes; assay type: cell-based, human; conditions: colorectal cancer cell lines and Jurkat cells
Procedure: After treatment, protein lysates were collected for Western blot analysis. A total of […] of protein was used for SDS-PAGE. After primary and secondary antibody incubations, the signal was detected by a chemiluminescence detection kit, imaged by Syngene (Imgen Technologies). Antibodies for PUMA (for IHC), p53 (Santa Cruz Biotechnology), caspase 8, cleaved caspase 8, caspase 9, caspase 3, cleavage PARP, eIF2α, p-eIF2α (Ser51), CHOP, ATF4, DR5, FOXO3a, p-FOXO3a (Ser253), NF-κB p65, p-NF-κB p65 (Ser536), c-Jun, p-c-Jun (Ser63), JNK, p-JNK (Thr183/Tyr185), PUMA (for WB), c-Myc, phosphor-S62-cMyc (Cell Signaling Technology), Noxa, p21 (Calbiochem), p73 (Bethyl laboratories Inc), Ran (BD Biosciences), […] (Sigma).
To test this hypothesis, two ERK1/2 inhibitors that act by different mechanisms were used. U0126 is an indirect ERK1/2 inhibitor. It inhibits MEK1 kinase and blocks the phosphorylation of ERK1/2. […] Consistent with a previous publication (Choi et al., Genes Dev, 2010, 24, 1236-1241), SCH772984 can inhibit ERK1/2 function after ERK1/2 is phosphorylated (FIG. 73), and the same is observed for PG3-Oc (FIG. 73).

## CCCCCCCCOC(=O)CCc1c(C)[nH]c(/C=C2\N=C(c3ccc[nH]3)C=C2OC)c1C [PG3-Oc, Octyl (Z)-3-(5-((4′-methoxy-1H,5′H-[2,2′-bipyrrol]-5′-ylidene)methyl)-2,4-dimethyl-1H-pyrrol-3-yl)propanoate]
HT29
  IC50: 66.3 nM
[1]
  PMAIP1 (Noxa) increase as compared to control: 1.9 fold
c-Myc and PUMA
  effect on c-Myc: potently downregulated c-Myc
